In patent US20240398818A1, “Cardiosafe Antidiabetic Therapy” (priority 2018, published 2024):

Tested on: adult patients with early type 2 diabetes mellitus and increased CV risk or established complications
Assay: Cardiovascular Safety Trial (linagliptin versus glimepiride)
Assay type: in vivo
Method: The effect of linagliptin on cardiovascular risk in adult patients with early type 2 diabetes mellitus and increased CV risk or established complications was evaluated in this Cardiovascular Safety Trial, a multi-center, multi-national, randomized, double-blind parallel group trial. The trial compared the risk of experiencing a major adverse cardiovascular event (MACE) between linagliptin and glimepiride when these were added to standard of care (including background therapy with metformin) based on regional standards for HbA1c and CV risk factors. The trial was event driven and patients were followed until at least 631 primary outcome events accrued.
A total of 6033 patients were treated (linagliptin 5 mg=3023; glimepiride 1 mg to 4 mg=3010) and followed for a median of 6.25 years (median time on treatment 5.9 years). Approximately 73% of the study population was Caucasian, 18% was Asian, and 5% was Black. The mean age was 64 years and 60% were male.
At baseline, disease characteristics were balanced. […] The trial population included 2030 (34%) patients ≥70 years of age, 2089 (35%) patients with cardiovascular disease, and 1130 (19%) patients with renal impairment with an eGFR <60 mL/min/1.73 m2 at baseline. Overall, the previous use of diabetes medications was balanced across treatment groups (metformin 83% continued as background therapy, sulfonylurea 28% discontinued prior to randomization), patients on insulin were excluded. The use of medications to reduce cardiovascular risk was also balanced (aspirin 47%, statins 65%, ACE inhibitors or ARBs 74%, beta blockers 39%, and calcium channel blockers 30%).
The primary endpoint in this Cardiovascular Safety Trial was the time to first occurrence of three point (3P) MACE. A major adverse cardiac event was defined as a cardiovascular death or a nonfatal myocardial infarction (MI) or a nonfatal stroke. The statistical analysis plan tested for non-inferiority for the occurrence of 3P MACE. The key secondary endpoint evaluated the composite of treatment sustainability defined as the proportion of patients on study treatment, that maintain glycemic control (HbA1c≤7.0%) without need for additional antidiabetic drug therapy (rescue medication), without any moderate (symptomatic with glucose value <70 mg/dL) or severe (requiring assistance) hypoglycemic episodes, and without >2% weight gain from baseline.
Cardiovascular Outcome Trial of Linagliptin Versus Glimepriride in Type 2 Diabetes—assessing long-term cardiovascular impact of linagliptin versus the sulphonylurea glimepiride in subjects with early type 2 diabetes and increased cardiovascular risk or established complications. […]
Type 2 diabetes patient with insufficient glycemic control (naïve or currently treated (mono or dual therapy) with e.g. metformin and/or an alpha-glucosidase inhibitor (e.g. having HbA1c 6.5-8.5%), or currently treated (mono or dual therapy) with e.g. a sulphonylurea or glinide, with or without metformin or an alpha-glucosidase inhibitor (e.g. having HbA1c 6.5-7.5%)) and increased or high risk of cardiovascular events, e.g. defined as one or more of risk factors A), B), C) and D) indicated below, are randomized* and treated over a lengthy period (e.g. up to 432 weeks) with linagliptin (5 mg, q.d., optionally in combination with one or more other active substances, e.g. such as added to existing antidiabetic background) and compared with patients treated with the sulphonylurea glimepiride (1-4 mg once daily). * Upon randomization, if a patient is on a SU or glinide, this secretagogue therapy is discontinued and replaced with study medication. For patients not on a secretagogue, study medication is added to the existing regimen.
Time to first occurrence of any of the following adjudicated components of the primary composite endpoint: […]

[1] = baseline to Final Visit, observed cases including values after rescue medication
[2] = both, human, in vivo, 5.9 years
[3] = both, human, in vivo, 6.25 years
[4] = component of secondary composite
[5] = from end of titration (16 weeks) to final visit
[6] = median follow-up 6.25 years, listed as linagliptin

CC#CCn1c(N2CCC[C@@H](N)C2)nc2c1c(=O)n(Cc1nc(C)c3ccccc3n1)c(=O)n2C [Linagliptin, 1-[(4-methyl-quinazolin-2-yl)methyl]-3-methyl-7-(2-butyn-1-yl)-8-(3-(R)-amino-piperidin-1-yl)-xanthine]
patients with macroalbuminuria (>300 mg/g) (at Final Visit): 1.4%
patients with microalbuminuria (≥30 to ≤300 mg/g) (at Final Visit): 14.1%
patients with normal UACR (<30 mg/g) (at baseline and at Final Visit): 58.4%
HBA1c, Change from baseline, adjusted mean (baseline to Final Visit, all observed cases): 0.06%
Creatinine, Change from baseline, adjusted mean [1]: 0.08 mg/dL
HDL, Change from baseline, adjusted mean [1]: 0.7 mg/dL
LDL, Change from baseline, adjusted mean [1]: -6.1 mg/dL
Total cholesterol, Change from baseline, adjusted mean [1]: -5.4 mg/dL
Triglyceride, Change from baseline, adjusted mean [1]: 1.7 mg/dL
Urinary albumin, Change from baseline, adjusted mean [1]: 43.4 mg/dL
third key secondary endpoint of treatment sustainability (on medication, HbA1c≤7.0%, no rescue, no >2% weight gain), responders (between Visit 6 and Final Visit): 17.4%
Hospitalization for heart failure (HHF), Incidence Rate per 1000 PY (both, human, in vivo): 6.4 per 1000 PY
Hospitalization for heart failure (HHF), Number of Subjects (both, human, in vivo): 112
Moderate/severe hypoglycaemic episodes, odds ratio (both, human, in vivo): 0.16
Patients with any moderate/severe hypoglycemic episodes, Number of Subjects (both, human, in vivo): 163
Patients with any moderate/severe hypoglycemic episodes, Subjects (%) (both, human, in vivo): 5.6%
Secondary CV composite (4P-MACE), Incidence Rate per 1000 PY (both, human, in vivo): 23.4 per 1000 PY
rate of moderate or severe hypoglycemia [2]: 6.5%
severe hypoglycemia (requiring assistance) [2]: 0.3%
Premature discontinuation from trial medication due to adverse events [3]: 15.1%
Primary CV composite (3P-MACE), Hazard Ratio [3]: 0.98
Primary CV composite (3P-MACE), Incidence Rate per 1000 PY [3]: 20.7 per 1000 PY
Secondary CV composite (4P-MACE), Hazard Ratio [3]: 0.99
all-cause mortality, incidence rate per 1000 years at risk [3]: 16.8 per 1000 years at risk
any adjudicated event (secondary CV endpoint), % of patients [3]: 17.1%
any adjudicated event, HR [3]: 0.96
hospitalisation for heart failure combined with CV death, incidence rate per 1000 years at risk [3]: 13.4 per 1000 years at risk
hospitalisation for heart failure, incidence rate per 1000 years at risk [3]: 6.4 per 1000 years at risk
investigator-reported heart failure AEs, % of patients [3]: 5.5%
investigator-reported heart failure AEs, HR [3]: 1.06
investigator-reported heart failure AEs, incidence rate per 1000 years at risk [3]: 9.5 per 1000 years at risk
non-CV death, % of patients [3]: 4.6%
non-CV death, incidence rate per 1000 years at risk [3]: 7.6 per 1000 years at risk
proportion of patients with CV death contributing to the 3P-MACE [3]: 4.3%
proportion of patients with CV death contributing to the 4P-MACE [3]: 4.1%
proportion of patients with hospitalisation for unstable angina pectoris contributing to the 4P-MACE [3]: 1.9%
proportion of patients with non-fatal MI contributing to the 3P-MACE [3]: 4.7%
proportion of patients with non-fatal MI contributing to the 4P-MACE [3]: 4.4%
proportion of patients with non-fatal stroke contributing to the 3P-MACE [3]: 2.8%
proportion of patients with non-fatal stroke contributing to the 4P-MACE [3]: 2.8%
Creatinine, Comparison vs. glimepiride, Adjusted mean (change baseline to Final Visit): -0.01 mg/dL
FPG, Comparison vs. glimepiride, Adjusted mean (change baseline to Final Visit): -7.3 mg/dL
HBA1c, Comparison vs. glimepiride, Adjusted mean (change baseline to Final Visit): −0.09%
HDL, Comparison vs. glimepiride, Adjusted mean (change baseline to Final Visit): 0.5 mg/dL
LDL, Comparison vs. glimepiride, Adjusted mean (change baseline to Final Visit): 0.4 mg/dL
Total cholesterol, Comparison vs. glimepiride, Adjusted mean (change baseline to Final Visit): -0.4 mg/dL
Triglyceride, Comparison vs. glimepiride, Adjusted mean (change baseline to Final Visit): -3.5 mg/dL
Urinary albumin, Comparison vs. glimepiride, Adjusted mean (change baseline to Final Visit): -1.9 mg/dL
Patients with maintained glycemic control (HbA1c ≤7.0%), Number of Subjects [4]: 648
Patients with maintained glycemic control (HbA1c ≤7.0%), Subjects (%) [4]: 21.5%
Patients with ≤2% weight gain, Number of Subjects [4]: 775
Patients with ≤2% weight gain, Subjects (%) [4]: 25.7%
Secondary composite of treatment sustainability (on treatment, HbA1c ≤7.0%, no rescue, no moderate/severe hypoglycemic episodes, no >2% weight gain), Number of Subjects [5]: 481
Secondary composite of treatment sustainability (second key secondary endpoint), Subjects (%) [5]: 16.0%
first intake of rescue medication, incidence rate per 1000 years at risk (in vivo): 128.6 per 1000 years at risk
rate of patients who used rescue medication (in vivo): 49.3%
safety profile in this trial population (in words) (in vivo): no new safety signal
time to 3P-MACE, non-inferiority test (in words) (in vivo): non-inferior
weight, adjusted mean difference (linagliptin compared with glimepiride over time): -1.61 kg
All-cause mortality, Hazard Ratio (linagliptin vs glimepiride): 0.91
HHF or CV death, Hazard Ratio (linagliptin vs glimepiride): 1.00
non-CV death, hazard ratio (linagliptin vs glimepiride): 0.82
third key secondary endpoint of treatment sustainability, OR (linagliptin vs glimepiride): 1.29
HHF or CV death, Hazard Ratio (linagliptin vs glimepiride, listed as linagliptin): 1.00
Secondary composite of treatment sustainability (second key secondary endpoint), Odds Ratio (linagliptin vs glimepiride, logistic regression): 1.68
All-cause mortality, Incidence Rate per 1000 PY (median follow-up 6.25 years): 16.8 per 1000 PY
All-cause mortality, Number of Subjects (median follow-up 6.25 years): 308
All-cause mortality, Subjects (%) (median follow-up 6.25 years): (10.2) %
HHF or CV death, Incidence Rate per 1000 PY (median follow-up 6.25 years): 13.4 per 1000 PY
HHF or CV death, Number of Subjects (median follow-up 6.25 years): 236
HHF or CV death, Subjects (%) (median follow-up 6.25 years): (7.8) %
Secondary CV composite (cardiovascular death, non-fatal MI, non-fatal stroke and hospitalization for unstable angina; 4P-MACE), Number of Subjects (median follow-up 6.25 years): 398
Primary CV composite (cardiovascular death, non-fatal MI, non-fatal stroke; 3P-MACE), Number of Subjects (median follow-up 6.25 years, added to standard of care): 356
All-cause mortality, Subjects (%) [6]: 10.2%
HHF or CV death, Subjects (%) [6]: 7.8%
weight change (in words) (over time): modest decrease in weight
